Test results as given in the NIST ThermoML archive (doi:10.1016/j.jct.2007.11.002).

Experiment: xn = mol fraction of the nth substance listed
Details: 101 kPa, Liquid; for viscosity: Capillary tube (Ostwald / Ubbelohde) method

CN1CCOCC1 [N-methylmorpholine] + Cc1ccccc1
Details	mass density, 298.15 K [kg/m3]	mass density, 303.15 K [kg/m3]	mass density, 313.15 K [kg/m3]	mass density, 323.15 K [kg/m3]	viscosity, 298.15 K [mPa·s]	viscosity, 303.15 K [mPa·s]	viscosity, 313.15 K [mPa·s]	viscosity, 323.15 K [mPa·s]
x2 = 0.0457	912.04	907.63	898.17	879.98	0.847	0.839	0.807	0.795
x2 = 0.1167	908.88	904.69	895.22	877.67	0.806	0.798	0.774	0.759
x2 = 0.1822	905.97	901.78	892.37	875.42	0.772	0.765	0.739	0.723
x2 = 0.2455	903.08	898.89	889.47	873.11	0.739	0.732	0.705	0.687
x2 = 0.2843	901.28	897.11	887.68	871.67	0.721	0.712	0.684	0.665
x2 = 0.3211	899.58	895.42	885.99	870.33	0.704	0.692	0.664	0.643
x2 = 0.3862	896.61	892.43	882.99	867.93	0.678	0.664	0.634	0.612
x2 = 0.4327	894.39	890.21	880.77	866.14	0.659	0.645	0.614	0.59
x2 = 0.4841	891.92	887.74	878.29	864.14	0.643	0.627	0.596	0.57
x2 = 0.5512	888.55	884.36	874.87	861.34	0.622	0.606	0.573	0.546
x2 = 0.5943	886.32	882.15	872.61	859.47	0.612	0.594	0.56	0.531
x2 = 0.6341	884.21	880.05	870.53	857.79	0.602	0.586	0.551	0.521
x2 = 0.6877	881.26	877.11	867.65	855.41	0.594	0.575	0.539	0.507
x2 = 0.7129	879.83	875.68	866.2	854.17	0.588	0.571	0.535	0.503
x2 = 0.7648	876.73	872.59	863.14	851.63	0.583	0.561	0.524	0.488
x2 = 0.7895	875.15	871.01	861.57	850.28	0.581	0.559	0.521	0.487
x2 = 0.8444	871.87	867.75	858.32	847.56	0.571	0.549	0.51	0.474
x2 = 0.8873	869.14	865.03	855.6	845.26	0.569	0.543	0.503	0.458
x2 = 0.9348	866.19	862.08	852.67	842.77	0.558	0.536	0.49	0.444
x2 = 0.9741	863.67	859.57	850.02	840.51	0.554	0.527	0.477	0.429

CN1CCOCC1 [N-methylmorpholine] + c1ccccc1
Details	mass density, 298.15 K [kg/m3]	mass density, 303.15 K [kg/m3]	mass density, 313.15 K [kg/m3]	mass density, 323.15 K [kg/m3]	viscosity, 298.15 K [mPa·s]	viscosity, 303.15 K [mPa·s]	viscosity, 313.15 K [mPa·s]	viscosity, 323.15 K [mPa·s]
x2 = 0.0554	912.69	907.91	898.27	879.87	0.847	0.836	0.811	0.789
x2 = 0.1167	911.11	906.07	896.38	878.41	0.814	0.805	0.781	0.761
x2 = 0.1798	909.39	904.33	894.47	876.92	0.783	0.772	0.746	0.731
x2 = 0.2477	907.18	902.35	892.51	875.44	0.753	0.741	0.713	0.695
x2 = 0.2855	906.2	901.15	891.26	874.46	0.737	0.725	0.695	0.676
x2 = 0.3422	904.33	899.41	889.48	873.1	0.715	0.7	0.668	0.647
x2 = 0.3762	903.31	898.32	888.33	872.2	0.704	0.688	0.654	0.632
x2 = 0.4244	901.72	896.71	886.67	870.91	0.687	0.671	0.636	0.613
x2 = 0.479	899.69	894.8	884.72	869.39	0.672	0.656	0.617	0.592
x2 = 0.5466	897	892.15	881.97	867.18	0.655	0.637	0.598	0.568
x2 = 0.5911	895.2	890.3	880.1	865.69	0.646	0.628	0.587	0.556
x2 = 0.6201	893.8	889.05	878.76	864.58	0.641	0.622	0.579	0.548
x2 = 0.6822	891	886.21	875.84	862.22	0.631	0.61	0.565	0.531
x2 = 0.7094	889.5	884.9	874.61	861.22	0.628	0.606	0.561	0.525
x2 = 0.7655	886.8	882.04	871.56	858.69	0.625	0.6	0.551	0.509
x2 = 0.7901	885.2	880.63	870.14	857.49	0.621	0.597	0.548	0.503
x2 = 0.8439	882.2	877.64	867.09	854.96	0.618	0.589	0.535	0.486
x2 = 0.8933	879.6	874.81	864.21	852.55	0.613	0.583	0.521	0.468
x2 = 0.9278	877.5	872.82	862.18	850.86	0.61	0.578	0.512	0.458
x2 = 0.9641	875.4	870.63	859.95	848.96	0.606	0.571	0.503	0.448
